# Experimental data taken from publication PMC9084191 (European Journal of Pharmaceutics and Biopharmaceutics, 2022).
# Like-named read-outs stand apart in the source and are kept apart here.
# Experiments:
# [1] = cited from earlier work
# Water sorption analysis = format: physicochemical; conditions: for Water sorption (%) at 95 % RH: 37 °C
# Description: Water sorption profiles of DLM salts and ASDs were measured by using a SGA-100 symmetrical gravimetric analyzer (TA Instrument, New Castle, DE) at 37 °C. Samples (10–20 mg) were flushed with dry air for 3 h. After drying, samples were exposed to increasing relative humidity (RH) steps from 5 to 95% with a maximum step time of 180 min. Vapor sorption profiles are recorded as the equilibrium value (the weight change was below 0.001%/min over 5 min) at each RH.
# [2] = Stability on storage at 40 °C/75% RH (PXRD, 19F NMR, HPLC); format: physicochemical; conditions: 2 weeks, 40 °C/RH 75%; for Drug content reduction (%): HPLC
# Description: The salt form of DLM was prepared using a Buchi Rotavapor-R (Newcastle, Delaware). DLM free base and sulfonic acid were added at drug-acid 1:1 molar ratio in a mixture of DCM and acetone (1:1 v/v) where alcoholic solvents were avoided to prevent the formation of alkyl esters during salt synthesis. Solvents were removed by rotary evaporation at 40 °C. DLM salts were then kept under vacuum at room temperature overnight to remove residual solvents. DLM salts were characterized by ^1H-nuclear magnetic resonance (NMR) spectroscopy to confirm salt formation. Their physical and chemical stability were monitored following storage at 40 °C/75% relative humidity (RH) by measuring several physicochemical properties, including crystallinity (by powder X-ray diffraction, PXRD), impurities (by ^19F NMR spectroscopy), drug content (by HPLC as described above) and hygroscopicity (using dynamic vapor sorption analysis).
# (§1) Crystallinity of ASDs and DLM salts was evaluated using a Rigaku Smartlab diffractometer (Rigaku Americas, The Woodlands, TX) equipped with a Cu–Kα radiation source and a D/tex ultradetector. Samples were added to glass sample holders, and powder patterns were recorded over the range of 4-40° 2θ at a scanning speed of 4° per min and a 0.02° step size with the voltage and current set to 40 kV and 44 mA, respectively.
# Salt formation was confirmed by ^1H nuclear magnetic resonance (NMR) spectroscopy and impurities in DLM salts following preparation and storage were detected by ^19F NMR spectroscopy. Samples were dissolved in dimethyl sulfoxide-d6 (Cambridge Isotope Laboratories, Inc., Andover, MA) at a concentration of 20 mg/mL. All NMR spectra were acquired on a Bruker DRX 500 MHz spectrometer (Karlsruhe, Germany) equipped with a BBFO z-gradient probe operating at room temperature. For ^1H NMR spectra, the spectral sweep width was 20 ppm, acquisition time was 1.6 sec and number of scans was 16. For ^19F NMR spectroscopy, ^1H was decoupled during acquisition, spectral sweep width was 50 ppm, acquisition time was 1.4 sec and the number of scans was 64.
# [3] = Glass transition temperature by DSC; format: physicochemical; conditions: for Tg: neat drug, salt or polymer
# Description: The glass transition temperatures (Tg) of drug, polymers and ASD samples were determined using a TA Q2000 DSC equipped with an RCS90 refrigeration unit (TA Instruments, New Castle, DE). The temperature calibration was performed using indium and tin, while enthalpy calibration was conducted with indium. Samples (5–10 mg) were added to aluminum pans with a pinhole lid (Tzero pan, TA Instrument, DE). […] The heating and cooling cycle was repeated 3 times to remove residual solvent and thermal history, and the last cycle was used for analysis.
# [4] = design: method as in PMID 24881816; conditions: predicted log P calculated by ALOGPS; cited from earlier work
# [5] = design: method as in earlier work; conditions: predicted pKa; cited from earlier work
# [6] = Dynamic light scattering of DLM-rich nanodroplets; format: physicochemical; conditions: HPMCP and HPMCAS solutions 300 µg/mL, drug 50 µg/mL, PBS pH 6.5, 3-h period
# Description: The size of DLM-rich droplets formed above the amorphous solubility was measured by dynamic light scattering (DLS) using a Nano-Zetasizer (Nano-ZS, Malvern Instruments, Westborough, MA). […] To evaluate the impact of polymers on nanodroplet stability, polymers were pre-dissolved in solution at a concentration of 300 μg/mL and drug was introduced at 50 μg/mL. Samples were monitored for up to 3 h after liquid–liquid phase separation was initiated.
# [7] = cited from earlier work; remark: listed apart in the source
# [8] = Nucleation induction time measurement; format: physicochemical; conditions: for Induction time (tind): 37 °C, no polymer
# [9] = Release testing of tablets, single-stage PBS pH 6.5; format: physicochemical; conditions: PBS pH 6.5, single stage
# Description: (§2) The ASDs were mixed with excipients and compressed to obtain tablets containing 5 mg DLM with respect to the free base. All dissolution studies of DLM tablets were conducted in triplicate in single-stage or two-stage pH-shift condition using a Hanson Vision G2 Classic 6 dissolution system (Teledyne Hanson Research, Chatsworth, CA). For single-stage testing, the tablets containing the ASDs were added to 50 mL PBS, pH 6.5 and monitored for 1 h at 37° C, with 150 rpm of stirring. For pH-shift experiments, release in the acidic stage was conducted in 45 mL HCl solution pH 1.6 for 1 h, followed by addition of 5 mL concentrated PBS (pH 7.3) to adjust the pH of solution to pH 6.5 and drug release was monitored for an additional 30 min. An in situ Rainbow fiber optic ultraviolet spectrometer coupled with 10 mm fiber optic dip probes (Pion, Billerica, MA, USA) was used to monitor drug concentration over time. Second derivative analysis was applied to correct the spectral baseline and a calibration curve of area under curve (AUC) of the range 330–350 nm was used to calculate the drug concentration.
# [10] = Release testing of tablets, two-stage pH-shift (pH 1.6 to 6.5); format: physicochemical
# Description: as §2
# [11] = Crystallinity by PXRD following preparation; format: physicochemical; conditions: immediately following preparation
# Description: as §1
# [12] = value of the strongest acidity, ref [2] of supplement
# [13] = value of the strongest acidity, ref [3, 4] of supplement
compound,measurement,setting,value
"O=S(=O)(O)c1ccccc1 [Benzenesulfonic, benzenesulfonic acid]",pKa,[1]; [12],-2.8
"CC1(C)C2CC[C@@]1(CS(=O)(=O)O)C(=O)C2 [Camphorsulfonic, (1S)-(+)-10-camphorsulfonic acid]",pKa,"[1]; value of the strongest acidity, ref [6] of supplement",1.2 [6]
CC1(C)[C@@H]2CC[C@@]1(CS(=O)(=O)O)C(=O)C2.C[C@]1(COc2ccc(N3CCC(Oc4ccc(OC(F)(F)F)cc4)CC3)cc2)Cn2cc([N+](=O)[O-])nc2O1 [Camsylate],Water sorption (%) at 95 % RH,Water sorption analysis,8.1%
same,Impurity (19F NMR) (%),[2],2.0%
same,Drug content reduction (%),[2],6.1%
same,Tg,[3],97.9 °C
"O=S(=O)(O)c1ccc(Cl)cc1 [Chlorobenzenesulfonic, 4-chlorobenzenesulfonic acid]",pKa,"[1]; value of the strongest acidity, ref [5] of supplement",-0.61 [5]
C[C@]1(COc2ccc(N3CCC(Oc4ccc(OC(F)(F)F)cc4)CC3)cc2)Cn2cc([N+](=O)[O-])nc2O1.O=S(=O)(O)c1ccc(Cl)cc1 [Closylate],Water sorption (%) at 95 % RH,Water sorption analysis,5.8%
same,Impurity (19F NMR) (%),[2],2.3%
same,Liquefaction,[2],liquefaction
same,Drug content reduction (%),[2],3.1%
same,Tg,[3],90.1 °C
C[C@]1(COc2ccc(N3CCC(Oc4ccc(OC(F)(F)F)cc4)CC3)cc2)Cn2cc([N+](=O)[O-])nc2O1.O=S(=O)(O)CCS(=O)(=O)O [DLM-edisylate (1:1)],Water sorption (%) at 95 % RH,Water sorption analysis,59%
same,Tg,[3],53.9 °C
C[C@]1(COc2ccc(N3CCC(Oc4ccc(OC(F)(F)F)cc4)CC3)cc2)Cn2cc([N+](=O)[O-])nc2O1 [Delamanid],pKa,[1],4.3
same,Hygroscopicity (in words),Water sorption analysis,non-hygroscopic
same,Log P,[4],6.14
same,pKa,[5],3.99
same,Glass forming ability class,[3]; cooling from the melt at 50 °C/min,Class I
same,Tg,[3],43.3 °C
same,Tg,[3]; listed as delamanid free base,43.3 ± 0.4 °C
same,Nanodroplet size change,[6],no notable change
same,Log P,[7],5.67
same,Induction time,"[8]; PBS pH 6.5, Eud-L100 300 µg/mL",10.2 ± 3.1 min
same,Induction time,"[8]; PBS pH 6.5, HPMC 300 µg/mL",about 50 min
same,Induction time,"[8]; PBS pH 6.5, HPMCAS 300 µg/mL",more than 1000 min
same,Induction time,"[8]; PBS pH 6.5, HPMCP 300 µg/mL",more than 1000 min
same,Induction time,"[8]; PBS pH 6.5, PVPVA 300 µg/mL",more than 1000 min
same,Induction time,"[8]; in presence of PVPVA, HPMCAS or HPMCP",> 720 min
same,Drug release (in words),[9],no release was detected
same,Drug concentration released in acid stage,"[10]; pH-shift experiment, low pH (1.6) stage",around 20 µg/mL
C[C@]1(COc2ccc(N3CCC(Oc4ccc(OC(F)(F)F)cc4)CC3)cc2)Cn2cc([N+](=O)[O-])nc2O1.C[C@]1(COc2ccc(N3CCC(Oc4ccc(OC(F)(F)F)cc4)CC3)cc2)Cn2cc([N+](=O)[O-])nc2O1.O=S(=O)(O)CCS(=O)(=O)O [Edisylate (2:1)],Water sorption (%) at 95 % RH,Water sorption analysis,11.6%
same,Impurity (19F NMR) (%),[2],1.0%
same,Drug content reduction (%),[2],0.8%
same,Tg,[3],117.8 °C
same,Drug release (in words),[9],no release
same,Release in acidic medium (in words),[10]; acid stage of pH-shift experiment,slightly higher than that observed for DLM free base
"O.O.O=S(=O)(O)CCS(=O)(=O)O [Ethanedisulfonic, 1,2-Ethanedisulfonic acid dihydrate]",pKa,[1]; [13],"-2.1 [3, 4]"
"CCS(=O)(=O)O [Ethanesulfonic, Ethanesulfonic acid]",pKa,[1]; [12],-1.68
same,pKa,"[1]; value of the strongest acidity, ref [3] of supplement",-2.05
CC1(COc2ccc(N3CCC(Oc4ccc(OC(F)(F)F)cc4)CC3)cc2)Cn2cc([N+](=O)[O-])nc2O1.CC1(COc2ccc(N3CCC(Oc4ccc(OC(F)(F)F)cc4)CC3)cc2)Cn2cc([N+](=O)[O-])nc2O1.O=S(=O)(O)c1cccc2c(S(=O)(=O)O)cccc12 (stereo not shown) [Napadisylate (2:1)],Crystallinity by PXRD (in words),[11],partial crystallization
"O=S(=O)(O)c1cccc2c(S(=O)(=O)O)cccc12 [Naphthalenedisulfonic, 1,5-naphthalenedisulfonic acid]",pKa,[1]; [13],"0.17 [3, 4]"
Tosylate,Water sorption (%) at 95 % RH,Water sorption analysis,6.1%
same,Impurity (19F NMR) (%),[2],1.0%
same,Liquefaction,[2],liquefaction
same,Drug content reduction (%),[2],2.1%
same,Tg,[3],90.2 °C
same,Induction time (tind),"[8]; FaSSGF (pH 1.6), at amorphous solubility",1.0 min
same,Induction time (tind),"[8]; PBS pH 6.5, at amorphous solubility",18.5 min
